Read-outs that look alike come from different tables or passages of the source.
Key:
Format in all cases: biochemical
CDK2/CCNE1 = CDK2/CCNE1 (Homo sapiens, UniProt P24941); assay: CDK2 homogeneous time-resolved fluorescence (HTRF) kinase assay; details: CDK2/CCNE
Summary of the method: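 An HTRF format measures CDK2/CCNE1 (3 nM) phosphorylating a 4E-BP1 Thr37/46 peptide at high (1 mM) ATP. Reactions run one hour at 23 °C, then EDTA-quenched and probed with Eu-labelled phospho-specific antibody.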

CDK1/CCNB1 = CDK1/CCNB1 (Homo sapiens, UniProt P06493); assay: CDK1 homogeneous time-resolved fluorescence (HTRF) kinase assay; details: CDK1/CCNB
Summary of the method: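 Read-out: TR-FRET (Eu anti-phospho-4E-BP1 Thr37/46 antibody, 2 nM; 665 nm or 665/615 ratio) after 60 min phosphorylation of 50 nM ULight-peptide by 0.5 nM CDK1/CCNB1 at 1 mM ATP, 23 °C. Compound preincubated 20 min with enzyme; 1% DMSO.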

CDK4/CCND3 = CDK4/CCND3 (Homo sapiens, UniProt P11802); assay: CDK4 homogeneous time-resolved fluorescence (HTRF) kinase assay; details: CDK4/CCND
Summary of the method: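 IC50 values were derived from 11-point half-log dilutions, usually starting at 10 μM. Compound was first held for 20 min at 23 °C with 1.5 nM CDK4/CCND3. 1 mM ATP and 50 nM ULight-eIF4E-BP1 (Thr37/46) substrate were then added for 60 min, and the TR-FRET 665 nm signal was measured after EDTA stop and Eu-anti-phospho-4E-BP1 detection.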

CDK6/CCND1 = CDK6/CCND1 (Homo sapiens, UniProt Q00534); assay: CDK6 homogeneous time-resolved fluorescence (HTRF) kinase assay; details: CDK6/CCND
Summary of the method: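 Recombinant CDK6/CCND1 (1 nM final) was preincubated with compound for 20 min at 23 °C in HEPES buffer with MgCl2, EGTA, DTT and Tween 20. Kinase reaction then ran 60 min at 23 °C with 1 mM ATP and 50 nM ULight-4E-BP1 (Thr37/46) peptide, and was stopped with EDTA.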

[1] = x = IC50 25-250 nM, read-out: CDK2/CCNE IC50 (25-250 nM)
[2] = x = IC50 >250 nM, read-out: CDK1/CCNB IC50 (>250 nM column)
[3] = x = IC50 >250 nM, read-out: CDK4/CCND IC50 (>250 nM column)
[4] = x = IC50 >250 nM, read-out: CDK6/CCND IC50 (>250 nM column)
[5] = x = IC50 <25 nM, read-out: CDK2/CCNE IC50 (<25 nM)
[6] = <25 nM, read-out: CDK2/CCNE IC50, <25 nM
[7] = >250 nM, read-out: CDK1/CCNB IC50 >250 nM
[8] = 25-250 nM, read-out: CDK4/CCND IC50, 25-250 nM
[9] = >250 nM, 1 mM ATP, read-out: CDK6/CCND IC50, >250 nM
[10] = 25-250 nM, 1 mM ATP, read-out: CDK6/CCND IC50, 25-250 nM
[11] = >250 nM, read-out: CDK4/CCND IC50, >250 nM

Sequence of CDK6/CCND1 (Q00534 whole entry): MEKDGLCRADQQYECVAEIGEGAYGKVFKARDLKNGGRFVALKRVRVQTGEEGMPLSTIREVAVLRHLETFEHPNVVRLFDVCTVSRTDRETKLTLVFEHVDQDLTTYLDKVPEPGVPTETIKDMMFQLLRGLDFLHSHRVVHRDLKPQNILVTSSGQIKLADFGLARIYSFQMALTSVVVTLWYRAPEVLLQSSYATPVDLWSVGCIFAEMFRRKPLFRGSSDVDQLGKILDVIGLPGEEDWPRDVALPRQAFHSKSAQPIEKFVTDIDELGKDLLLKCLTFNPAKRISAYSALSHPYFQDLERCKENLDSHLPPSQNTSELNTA
Sequence of CDK6/CCND1 (P24385 whole entry partner): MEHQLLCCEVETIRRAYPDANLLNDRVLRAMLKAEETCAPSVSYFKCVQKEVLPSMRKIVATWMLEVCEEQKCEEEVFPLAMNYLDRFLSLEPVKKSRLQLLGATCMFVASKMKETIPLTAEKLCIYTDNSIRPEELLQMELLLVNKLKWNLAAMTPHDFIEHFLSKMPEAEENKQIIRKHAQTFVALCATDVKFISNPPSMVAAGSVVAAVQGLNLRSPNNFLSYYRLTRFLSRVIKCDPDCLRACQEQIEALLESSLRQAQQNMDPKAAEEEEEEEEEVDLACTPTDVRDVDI
Sequence of CDK4/CCND3 (P11802 whole entry): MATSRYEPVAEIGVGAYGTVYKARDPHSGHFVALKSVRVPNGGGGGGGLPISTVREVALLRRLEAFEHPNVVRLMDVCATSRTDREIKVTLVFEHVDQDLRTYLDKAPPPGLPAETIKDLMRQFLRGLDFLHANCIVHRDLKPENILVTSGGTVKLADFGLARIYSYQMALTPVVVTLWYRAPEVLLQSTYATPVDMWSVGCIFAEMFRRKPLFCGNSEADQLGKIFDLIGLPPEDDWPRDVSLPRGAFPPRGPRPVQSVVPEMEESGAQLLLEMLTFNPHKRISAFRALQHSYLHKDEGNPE
Sequence of CDK4/CCND3 (P30281 whole entry partner): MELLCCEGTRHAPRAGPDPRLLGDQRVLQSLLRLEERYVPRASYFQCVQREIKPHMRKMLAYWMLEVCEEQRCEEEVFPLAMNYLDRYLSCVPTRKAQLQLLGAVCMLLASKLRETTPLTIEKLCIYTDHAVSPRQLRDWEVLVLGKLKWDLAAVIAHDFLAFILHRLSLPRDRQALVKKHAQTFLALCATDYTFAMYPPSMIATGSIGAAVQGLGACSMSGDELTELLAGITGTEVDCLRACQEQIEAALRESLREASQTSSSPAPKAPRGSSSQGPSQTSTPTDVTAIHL
Sequence of CDK1/CCNB1 (P06493 whole entry): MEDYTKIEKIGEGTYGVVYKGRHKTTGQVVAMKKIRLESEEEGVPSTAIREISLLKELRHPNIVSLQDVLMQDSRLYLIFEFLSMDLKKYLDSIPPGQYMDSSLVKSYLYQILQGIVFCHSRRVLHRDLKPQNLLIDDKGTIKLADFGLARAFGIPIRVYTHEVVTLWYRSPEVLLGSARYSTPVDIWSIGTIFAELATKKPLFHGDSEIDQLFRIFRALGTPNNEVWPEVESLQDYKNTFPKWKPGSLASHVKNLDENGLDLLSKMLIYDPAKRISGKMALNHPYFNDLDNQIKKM
Sequence of CDK1/CCNB1 (P14635 whole entry partner): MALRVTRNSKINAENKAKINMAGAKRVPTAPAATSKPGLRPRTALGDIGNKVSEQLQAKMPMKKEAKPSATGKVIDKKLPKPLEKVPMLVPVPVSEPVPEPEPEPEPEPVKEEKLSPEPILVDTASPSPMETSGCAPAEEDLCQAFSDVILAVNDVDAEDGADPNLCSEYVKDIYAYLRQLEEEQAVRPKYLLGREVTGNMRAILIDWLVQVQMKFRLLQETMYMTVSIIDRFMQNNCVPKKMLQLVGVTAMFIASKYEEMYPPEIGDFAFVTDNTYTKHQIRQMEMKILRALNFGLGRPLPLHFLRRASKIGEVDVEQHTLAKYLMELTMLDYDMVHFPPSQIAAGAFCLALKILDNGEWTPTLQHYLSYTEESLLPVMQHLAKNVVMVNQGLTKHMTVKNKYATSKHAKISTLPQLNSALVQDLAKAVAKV

SMILES | IC50 (CDK2/CCNE1; [1]) | IC50 (CDK1/CCNB1; [2]) | IC50 (CDK4/CCND3; [3]) | IC50 (CDK6/CCND1; [4]) | IC50 (CDK2/CCNE1; [6]) | IC50 (CDK1/CCNB1; [7]) | IC50 (CDK6/CCND1; [9]) | further results
Cc1c(-c2nccc3cnc(Nc4ccc(S(C)(=O)=O)cc4)cc23)ccc2c1cnn2CC(=O)NC1CCCCC1 [Example 642, N-cyclohexyl-2-(4-methyl-5-(7-((4-(methylsulfonyl)phenyl)amino)-2,6-naphthyridin-1-yl)-1H-indazol-1-yl)acetamide] | 0.025 to 0.25 µM | > 0.25 µM | > 0.25 µM | > 0.25 µM | – | – | – | –
Cc1c(-c2nccc3cnc(Nc4ccc(S(C)(=O)=O)cc4)cc23)ccc2c1cnn2C(=O)NC(C)(C)C [Example 668, N-(tert-butyl)-4-methyl-5-(7-((4-(methylsulfonyl)phenyl)amino)-2,6-naphthyridin-1-yl)-1H-indazole-1-carboxamide] | 0.025 to 0.25 µM | > 0.25 µM | > 0.25 µM | > 0.25 µM | – | – | – | –
C/C=C/S(=O)(=O)c1ccc(Nc2cc3c(N4CCC(C#N)CC4)nccc3cn2)cc1 [Example 670, (E)-1-(7-((4-(prop-1-en-1-ylsulfonyl)phenyl)amino)-2,6-naphthyridin-1-yl)piperidine-4-carbonitrile] | 0.025 to 0.25 µM | > 0.25 µM | > 0.25 µM | > 0.25 µM | – | – | – | –
CC(=O)NS(=O)(=O)c1ccc(Nc2cc3c(-c4ccc5c(cnn5CC(O)(C(F)(F)F)C(F)(F)F)c4C)nccc3cn2)cc1 [Example 678, N-((4-((5-(4-methyl-1-(3,3,3-trifluoro-2-hydroxy-2-(trifluoromethyl)propyl)-1H-indazol-5-yl)-2,6-naphthyridin-3-yl)amino)phenyl)sulfonyl)acetamide] | 0.025 to 0.25 µM | > 0.25 µM | > 0.25 µM | > 0.25 µM | – | – | – | –
CCN[S@](=N)(=O)c1ccc(Nc2cc3c(-c4ccc5c(cnn5CC(O)(C(F)(F)F)C(F)(F)F)c4C)nccc3cn2)cc1 [Example 682, (S)-N-ethyl-4-((5-(4-methyl-1-(3,3,3-trifluoro-2-hydroxy-2-(trifluoromethyl)propyl)-1H-indazol-5-yl)-2,6-naphthyridin-3-yl)amino)benzenesulfonimidamide] | – | – | – | – | < 0.025 µM | > 0.25 µM | > 0.25 µM | IC50 (CDK4/CCND3; [8]): 0.025 to 0.25 µM
N=S(=O)(c1ccc(Nc2cc3c(C#Cc4cnc5c(c4)NC(=O)CO5)nccc3cn2)cc1)C1CCC1 (stereo not drawn) [Example 686, 7-((7-((4-(cyclobutanesulfonimidoyl)phenyl)amino)-2,6-naphthyridin-1-yl)ethynyl)-1H-pyrido[2,3-b][1,4]oxazin-2(3H)-one] | – | – | – | – | < 0.025 µM | > 0.25 µM | – | IC50 (CDK4/CCND3; [8]): 0.025 to 0.25 µM; IC50 (CDK6/CCND1; [10]): 0.025 to 0.25 µM
CNS(=O)(=O)c1ccc(Nc2cc3c(-c4ccc5c(cnn5CC(O)(C(F)(F)F)C(F)(F)F)c4C)nccc3cn2)cc1 [Example 696, N-methyl-4-((5-(4-methyl-1-(3,3,3-trifluoro-2-hydroxy-2-(trifluoromethyl)propyl)-1H-indazol-5-yl)-2,6-naphthyridin-3-yl)amino)benzenesulfonamide] | – | – | – | – | < 0.025 µM | > 0.25 µM | > 0.25 µM | IC50 (CDK4/CCND3; [11]): > 0.25 µM
Cc1c(-c2nccc3cnc(Nc4ccc(S(=O)(=O)N(c5ncccn5)C5CC5)cc4)cc23)ccc2c1cnn2CC(O)(C(F)(F)F)C(F)(F)F [Example 698, N-cyclopropyl-4-((5-(4-methyl-1-(3,3,3-trifluoro-2-hydroxy-2-(trifluoromethyl)propyl)-1H-indazol-5-yl)-2,6-naphthyridin-3-yl)amino)-N-(pyrimidin-2-yl)benzenesulfonamide] | – | – | – | – | – | > 0.25 µM | > 0.25 µM | IC50 (CDK2/CCNE1; >250 nM, read-out: CDK2/CCNE IC50, >250 nM): > 0.25 µM; IC50 (CDK4/CCND3; [11]): > 0.25 µM
COc1cnc(NS(=O)(=O)c2ccc(Nc3cc4c(-c5ccc6c(cnn6CC(O)(C(F)(F)F)C(F)(F)F)c5C)nccc4cn3)cc2)cc1N1CCOCC1 [Example 700, N-(5-methoxy-4-morpholinopyridin-2-yl)-4-((5-(4-methyl-1-(3,3,3-trifluoro-2-hydroxy-2-(trifluoromethyl)propyl)-1H-indazol-5-yl)-2,6-naphthyridin-3-yl)amino)benzenesulfonamide] | – | – | – | – | < 0.025 µM | > 0.25 µM | > 0.25 µM | IC50 (CDK4/CCND3; [11]): > 0.25 µM
Cc1c(-c2nccc3cnc(Nc4ccc(NS(=O)(=O)c5ncccn5)cc4)cc23)ccc2c1cnn2CC(C)(C)O [Example 705, N-(4-((5-(1-(2-hydroxy-2-methylpropyl)-4-methyl-1H-indazol-5-yl)-2,6-naphthyridin-3-yl)amino)phenyl)pyrimidine-2-sulfonamide] | – | – | – | – | < 0.025 µM | > 0.25 µM | – | IC50 (CDK4/CCND3; [8]): 0.025 to 0.25 µM; IC50 (CDK6/CCND1; [10]): 0.025 to 0.25 µM
Cc1ccc(NS(=O)(=O)c2ccc(Nc3cc4c(-c5ccc6c(cnn6CC(O)(C(F)(F)F)C(F)(F)F)c5C)nccc4cn3)cc2)cc1C(C)(C)O [Example 708, N-(3-(2-hydroxypropan-2-yl)-4-methylphenyl)-4-((5-(4-methyl-1-(3,3,3-trifluoro-2-hydroxy-2-(trifluoromethyl)propyl)-1H-indazol-5-yl)-2,6-naphthyridin-3-yl)amino)benzenesulfonamide] | – | – | – | – | – | > 0.25 µM | > 0.25 µM | IC50 (CDK2/CCNE1; 25-250 nM, read-out: CDK2/CCNE IC50, 25-250 nM): 0.025 to 0.25 µM; IC50 (CDK4/CCND3; [11]): > 0.25 µM

Continued, in another order:

IC50 (CDK2/CCNE1; [1]) | IC50 (CDK1/CCNB1; [2]) | IC50 (CDK4/CCND3; [3]) | IC50 (CDK6/CCND1; [4]) | IC50 (CDK2/CCNE1; [6]) | IC50 (CDK1/CCNB1; [7]) | IC50 (CDK6/CCND1; [9]) | SMILES | further results
0.025 to 0.25 µM | > 0.25 µM | > 0.25 µM | > 0.25 µM | – | – | – | C=Cc1c(-c2nccc3cnc(Nc4ccc(S(C)(=O)=O)cc4)cc23)ccc2[nH]ncc12 [Example 641, N-(4-(methylsulfonyl)phenyl)-5-(4-vinyl-1H-indazol-5-yl)-2,6-naphthyridin-3-amine] | –
– | > 0.25 µM | – | – | – | – | – | Cc1c(-c2nccc3cnc(Nc4ccc(S(C)(=O)=O)cc4)cc23)ccc2c1cnn2C(N)=O [Example 659, 4-methyl-5-(7-((4-(methylsulfonyl)phenyl)amino)-2,6-naphthyridin-1-yl)-1H-indazole-1-carboxamide] | IC50 (CDK2/CCNE1; [5]): < 0.025 µM; IC50 (CDK4/CCND3; x = IC50 25-250 nM, read-out: CDK4/CCND IC50 (25-250 nM)): 0.025 to 0.25 µM; IC50 (CDK6/CCND1; x = IC50 25-250 nM, read-out: CDK6/CCND IC50 (25-250 nM)): 0.025 to 0.25 µM
0.025 to 0.25 µM | > 0.25 µM | > 0.25 µM | > 0.25 µM | – | – | – | N#Cc1ccc(C#Cc2nccc3cnc(Nc4ccc(S(=O)(=O)CCN5CCOCC5)cc4)cc23)cc1 [Example 661, 4-((7-((4-((2-morpholinoethyl)sulfonyl)phenyl)amino)-2,6-naphthyridin-1-yl)ethynyl)benzonitrile] | –
0.025 to 0.25 µM | > 0.25 µM | > 0.25 µM | > 0.25 µM | – | – | – | Cn1cc(C#Cc2nccc3cnc(Nc4ccc(S(C)(=O)=O)cc4)cc23)ccc1=O [Example 663, 1-Methyl-5-((7-((4-(methylsulfonyl)phenyl)amino)-2,6-naphthyridin-1-yl)ethynyl)pyridin-2(1H)-one] | –
– | > 0.25 µM | > 0.25 µM | > 0.25 µM | – | – | – | CS(=O)(=O)c1ccc(Nc2cc3c(C#Cc4ccc(CN5CCOCC5)cc4)nccc3cn2)cc1 [Example 666, N-(4-(methylsulfonyl)phenyl)-5-((4-(morpholinomethyl)phenyl)ethynyl)-2,6-naphthyridin-3-amine] | IC50 (CDK2/CCNE1; [5]): < 0.025 µM
– | – | – | – | < 0.025 µM | – | – | CC1(C)C(=O)Nc2cc(C#Cc3nccc4cnc(Nc5ccc([S@@](=N)(=O)NC6CCC6)cc5)cc34)ccc21 [Example 687, (S)-N-cyclobutyl-4-((5-((3,3-dimethyl-2-oxoindolin-6-yl)ethynyl)-2,6-naphthyridin-3-yl)amino)benzenesulfonimidamide] | IC50 (CDK1/CCNB1; 25-250 nM, read-out: CDK1/CCNB IC50, 25-250 nM): 0.025 to 0.25 µM; IC50 (CDK4/CCND3; [8]): 0.025 to 0.25 µM; IC50 (CDK6/CCND1; [10]): 0.025 to 0.25 µM
– | – | – | – | < 0.025 µM | > 0.25 µM | > 0.25 µM | CS(=O)(=O)c1ccc(Nc2cc3c(C#CC4(O)CCCNC4)nccc3cn2)cc1 (stereo not drawn) [Example 699, 3-((7-((4-(methylsulfonyl)phenyl)amino)-2,6-naphthyridin-1-yl)ethynyl)piperidin-3-ol] | IC50 (CDK4/CCND3; [8]): 0.025 to 0.25 µM
